Laboratory results as given in patent publication US20230391760A1, “HETEROCYCLIC GLP-1 AGONISTS” (Gasherbrum Bio, Inc., priority 2020, published 2023).

Biological target: GLP-1 Receptor (Homo sapiens, UniProt P43220)
Assay: GLP-1R agonist cAMP stimulation assay (HEK293/GLP1R/CRE-LUC cells, cAMP dynamic 2 Kit)
Format: cell-based
Conditions: HEK293/CRE-Luc cell line stably expressing the GLP-1 Receptor, 30 min at 37° C.
In short: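 HEK293 cells stably expressing human GLP-1R with CRE-luciferase, 1000 cells/well in DPBS with 0.5 mM IBMX and 0.1% BSA, treated with compound in 1/2-log serial dilution for 30 min at 37 °C. cAMP then detected by HTRF (cAMP-d2 plus anti-cAMP cryptate), 1 h at room temperature in the dark.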

GLP-1 Receptor, sequence (P43220 24-463, species assumed): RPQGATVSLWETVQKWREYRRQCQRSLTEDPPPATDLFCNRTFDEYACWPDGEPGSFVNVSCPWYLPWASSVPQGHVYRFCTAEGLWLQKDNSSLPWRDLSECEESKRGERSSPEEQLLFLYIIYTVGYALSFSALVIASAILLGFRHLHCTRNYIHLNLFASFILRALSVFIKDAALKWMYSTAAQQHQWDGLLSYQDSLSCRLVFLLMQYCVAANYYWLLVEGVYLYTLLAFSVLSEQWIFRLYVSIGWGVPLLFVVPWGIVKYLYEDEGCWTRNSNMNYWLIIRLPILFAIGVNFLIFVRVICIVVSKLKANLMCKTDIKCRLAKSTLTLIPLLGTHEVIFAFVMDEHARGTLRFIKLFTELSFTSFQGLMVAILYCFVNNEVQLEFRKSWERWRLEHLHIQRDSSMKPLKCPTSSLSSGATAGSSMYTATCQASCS

SMILES | EC50 [nM]
CO[C@@H](C)Cn1c(CN2CCC(c3cccc4c3OC(C)(c3ccc(Cl)cn3)O4)CC2)nc2cc(-c3noc(=O)[nH]3)ncc21 (stereo partly drawn) [Compound 437a, 3-[2-({4-[2-(5-chloropyridin-2-yl)-2-methyl-2H-1,3-benzodioxol-4-yl]piperidin-1-yl}methyl)-3-[(2S)-2-methoxypropyl]-3H-imidazo[4,5-c]pyridin-6-yl]-4,5-dihydro-1,2,4-oxadiazol-5-one] | 2.7
CO[C@H](C)Cn1c(CN2CCC(c3cccc4c3O[C@@](C)(c3ccc(Cl)cc3F)O4)CC2)nc2cc(-c3noc(=O)[nH]3)cnc21 [Compound 397a, 3-[2-({4-[(2S)-2-(4-chloro-2-fluorophenyl)-2-methyl-2H-1,3-benzodioxol-4-yl]piperidin-1-yl}methyl)-3-[(2R)-2-methoxypropyl]-3H-imidazo[4,5-b]pyridin-6-yl]-4,5-dihydro-1,2,4-oxadiazol-5-one] | 1.3
O=C(Nc1ccc2c(c1)nc(CN1CCC(c3cccc(OCc4ccc(Cl)cc4F)n3)CC1)n2C[C@@H]1CCO1)C1Cc2ccncc2C1 (stereo partly drawn) [Compound 180a, N-{2-[(4-{6-[(4-chloro-2-fluorophenyl)methoxy]pyridin-2-yl}piperidin-1-yl)methyl]-1-{[(2S)-oxetan-2-yl]methyl}-1H-1,3-benzodiazol-5-yl}-5H,6H,7H-cyclopenta[c]pyridine-6-carboxamide] | 6
CC1(c2ccc(Cl)cc2F)Oc2cccc(C3CCN(Cc4nc5cc(NC(=O)c6cccnc6)ccc5n4C[C@@H]4CCO4)CC3)c2O1 (stereo partly drawn) [Compound 235a, N-(2-((4-(2-(4-chloro-2-fluorophenyl)-2-methylbenzo[d][1,3]dioxol-4-yl)piperidin-1-yl)methyl)-1-(((S)-oxetan-2-yl)methyl)-1H-benzo[d]imidazol-5-yl)nicotinamide] | 0.062
Fc1cc(Cl)ccc1COc1nc(C2CCN(Cc3nc4cc(-c5nnc(C(F)(F)F)[nH]5)ncc4n3C[C@@H]3CCO3)CC2F)ccc1F (stereo partly drawn) [Compound 515a, 2-[(4-chloro-2-fluorophenyl)methoxy]-3-fluoro-6-[(3,4-trans)-3-fluoro-1-[(3-{[(2S)-oxetan-2-yl]methyl}-6-[5-(trifluoromethyl)-4H-1,2,4-triazol-3-yl]-3H-imidazo[4,5-c]pyridin-2-yl)methyl]piperidin-4-yl]pyridine] | 0.057
CC1(c2ccc(Cl)cn2)Oc2cccc(C3=CCN(Cc4nc5cc(-c6nnc(C7CC7)[nH]6)cnc5n4C[C@@H]4CCO4)CC3)c2O1 (stereo partly drawn) [Compound 416a, 5-chloro-2-[4-(1-{[6-(5-cyclopropyl-4H-1,2,4-triazol-3-yl)-3-{[(2S)-oxetan-2-yl]methyl}-3H-imidazo[4,5-b]pyridin-2-yl]methyl}-1,2,3,6-tetrahydropyridin-4-yl)-2-methyl-2H-1,3-benzodioxol-2-yl]pyridine] | 14
CC1(c2ccc(Cl)cc2F)Oc2cc(F)cc(C3CCN(Cc4nc5cc(-c6nnc(C(F)(F)F)[nH]6)ncc5n4C[C@@H]4CCO4)CC3)c2O1 (stereo partly drawn) [Compound 441a, 4-[2-(4-chloro-2-fluorophenyl)-6-fluoro-2-methyl-2H-1,3-benzodioxol-4-yl]-1-[(3-{[(2S)-oxetan-2-yl]methyl}-6-[5-(trifluoromethyl)-4H-1,2,4-triazol-3-yl]-3H-imidazo[4,5-c]pyridin-2-yl)methyl]piperidine] | 0.025
O=C(Nc1ccc2c(c1)nc(CN1CCC(c3cccc(OCc4ccc(Cl)cc4F)n3)CC1)n2C[C@@H]1CCO1)N1CCC(O)C1 (stereo partly drawn) [Compound 207a, N-{2-[(4-{6-[(4-chloro-2-fluorophenyl)methoxy]pyridin-2-yl}piperidin-1-yl)methyl]-1-{[(2S)-oxetan-2-yl]methyl}-1H-1,3-benzodiazol-5-yl}-3-hydroxypyrrolidine-1-carboxamide] | 0.39
CC1(c2ccc(C#N)cc2F)Oc2cccc(C3CCN(Cc4nc5cc(-c6nnc(C7CC7)[nH]6)cnc5n4C[C@@H]4CCO4)CC3)c2O1 (stereo partly drawn) [Compound 276a, 4-[4-(1-{[6-(5-cyclopropyl-4H-1,2,4-triazol-3-yl)-3-{[(2S)-oxetan-2-yl]methyl}-3H-imidazo[4,5-b]pyridin-2-yl]methyl}piperidin-4-yl)-2-methyl-2H-1,3-benzodioxol-2-yl]-3-fluorobenzonitrile] | 0.56
Cc1nnc(-c2cc3nc(CN4CCC(c5cccc6c5OC[C@@H](c5ccc(Cl)cc5)O6)CC4)n(C[C@@H]4CCO4)c3cn2)[nH]1 [Compound 424a, 4-[(2R)-2-(4-chlorophenyl)-2,3-dihydro-1,4-benzodioxin-5-yl]-1-{[6-(5-methyl-4H-1,2,4-triazol-3-yl)-3-{[(2S)-oxetan-2-yl]methyl}-3H-imidazo[4,5-c]pyridin-2-yl]methyl}piperidine] | 0.13
N#Cc1ccc(COc2nc(C3CCN(Cc4nc5cc(-c6nnc(C(F)(F)F)[nH]6)nnc5n4C[C@@H]4CCO4)CC3)ccc2F)c(F)c1 [Compound 517a, 3-fluoro-4-{[(3-fluoro-6-{1-[(7-{[(2S)-oxetan-2-yl]methyl}-3-[5-(trifluoromethyl)-4H-1,2,4-triazol-3-yl]-7H-imidazo[4,5-c]pyridazin-6-yl)methyl]piperidin-4-yl}pyridin-2-yl)oxy]methyl}benzonitrile] | 0.043
O=C(Nc1ccc2c(c1)nc(CN1CCC(c3cccc(OCc4ccc(Cl)cc4F)n3)CC1)n2C[C@@H]1CCO1)C(F)(F)F [Compound 167a, N-{2-[(4-{6-[(4-chloro-2-fluorophenyl)methoxy]pyridin-2-yl}piperidin-1-yl)methyl]-1-{[(2S)-oxetan-2-yl]methyl}-1H-1,3-benzodiazol-5-yl}-2,2,2-trifluoroacetamide] | 1.1
N#Cc1ccc(COc2cccc(C3=CCN(Cc4nc5cc(-c6nnc(C(F)(F)F)[nH]6)cnc5n4C[C@@H]4CCO4)CC3)c2)c(F)c1 [Compound 317a, 3-fluoro-4-[(3-{1-[(3-{[(2S)-oxetan-2-yl]methyl}-6-[5-(trifluoromethyl)-4H-1,2,4-triazol-3-yl]-3H-imidazo[4,5-b]pyridin-2-yl)methyl]-1,2,3,6-tetrahydropyridin-4-yl}phenoxy)methyl]benzonitrile] | 0.11
CNc1c(Nc2ccc3c(c2)nc(CN2CCC(c4cccc(OCc5ccc(Cl)cc5F)n4)CC2)n3C[C@@H]2CCO2)c(=O)c1=O [Compound 208a, 3-({2-[(4-{6-[(4-chloro-2-fluorophenyl)methoxy]pyridin-2-yl}piperidin-1-yl)methyl]-1-{[(2S)-oxetan-2-yl]methyl}-1H-1,3-benzodiazol-5-yl}amino)-4-(methylamino)cyclobut-3-ene-1,2-dione] | 1.8
O=C(Nc1ccc2c(c1)nc(CN1CCC(c3cccc(OCc4ccc(Cl)cc4F)n3)CC1)n2C[C@@H]1CCO1)[C@@H]1COC2(CCC2)C1 [Compound 201a, (7S)—N-{2-[(4-{6-[(4-chloro-2-fluorophenyl)methoxy]pyridin-2-yl}piperidin-1-yl)methyl]-1-{[(2S)-oxetan-2-yl]methyl}-1H-1,3-benzodiazol-5-yl}-5-oxaspiro[3.4]octane-7-carboxamide] | 3.1
Cc1nnc(-c2cc3nc(CN4CCC(c5cccc6c5O[C@@](C)(c5ccc(Cl)cc5F)O6)CC4)n(C[C@@H]4CCO4)c3nn2)[nH]1 [Compound 280a, 4-[(2S)-2-(4-chloro-2-fluorophenyl)-2-methyl-2H-1,3-benzodioxol-4-yl]-1-{[3-(5-methyl-4H-1,2,4-triazol-3-yl)-7-{[(2S)-oxetan-2-yl]methyl}-7H-imidazo[4,5-c]pyridazin-6-yl]methyl}piperidine] | 0.11
CC1(c2ccc(Cl)cc2)Oc2cccc(C3CCN(Cc4nc5cc(-c6noc(=O)[nH]6)ncc5n4C[C@@H]4CCO4)CC3)c2O1 (stereo partly drawn) [Compound 347a, 3-[2-({4-[2-(4-chlorophenyl)-2-methyl-2H-1,3-benzodioxol-4-yl]piperidin-1-yl}methyl)-3-{[(2S)-oxetan-2-yl]methyl}-3H-imidazo[4,5-c]pyridin-6-yl]-4,5-dihydro-1,2,4-oxadiazol-5-one] | 0.022
Cc1nnc(-c2ccc3c(c2)nc(CN2CCC(c4cccc5c4O[C@@](C)(c4ccc(C(N)=O)cc4F)O5)CC2)n3C[C@@H]2CCO2)[nH]1 [Compound 410b, 3-fluoro-4-[(2S)-2-methyl-4-(1-{[5-(5-methyl-4H-1,2,4-triazol-3-yl)-1-{[(2S)-oxetan-2-yl]methyl}-1H-1,3-benzodiazol-2-yl]methyl}piperidin-4-yl)-2H-1,3-benzodioxol-2-yl]benzamide] | 0.082
C[C@]1(c2ccc(Cl)cn2)Oc2cccc(C3CCN(Cc4nc5cc(-c6nnn[nH]6)cnc5n4C[C@@H]4CCO4)CC3)c2O1 [Compound 451a, 5-chloro-2-[(2S)-2-methyl-4-{1-[(3-{[(2S)-oxetan-2-yl]methyl}-6-(1H-1,2,3,4-tetrazol-5-yl)-3H-imidazo[4,5-b]pyridin-2-yl)methyl]piperidin-4-yl}-2H-1,3-benzodioxol-2-yl]pyridine] | 0.21
N#Cc1ccc(COc2cc(C3=CCN(Cc4nc5cc(-c6nnc(C(F)(F)F)[nH]6)cnc5n4C[C@@H]4CCO4)CC3)ccc2F)c(F)c1 [Compound 296a, 3-fluoro-4-[(2-fluoro-5-{1-[(3-{[(2S)-oxetan-2-yl]methyl}-6-[5-(trifluoromethyl)-4H-1,2,4-triazol-3-yl]-3H-imidazo[4,5-b]pyridin-2-yl)methyl]-1,2,3,6-tetrahydropyridin-4-yl}phenoxy)methyl]benzonitrile] | 0.48
Cc1nnc(-c2cnc3c(c2)nc(CN2CCC(c4cccc5c4O[C@@](C)(c4ccc(Cl)cc4F)O5)CC2)n3C[C@@H]2CCO2)[nH]1 [Compound 292a, 4-[(2S)-2-(4-chloro-2-fluorophenyl)-2-methyl-2H-1,3-benzodioxol-4-yl]-1-{[6-(5-methyl-4H-1,2,4-triazol-3-yl)-3-{[(2S)-oxetan-2-yl]methyl}-3H-imidazo[4,5-b]pyridin-2-yl]methyl}piperidine] | 0.1
